In ChEMBL document CHEMBL3137667, “[Drug-induced liver injury; fourteenth updated edition of the bibliographic database of liver injuries and related drugs]” (Gastroenterol Clin Biol, 2004):

Experiments:
[1] = human, serum
[2] = Highest frequency of moderate liver toxicity observed during clinical trials, expressed as a percentage. [column '% BIOL' in source]; settings: human
[3] = human
[4] = human; remark: listed apart in the source
[5] = human; remark: listed apart in the source
[6] = human; remark: listed apart in the source
[7] = human, serum, 4383 h
[8] = human; remark: listed apart in the source
[9] = human; remark: listed apart in the source
[10] = human, serum; remark: listed apart in the source
[11] = Highest frequency of acute liver toxicity observed during clinical trials, expressed as a percentage. [column '% AIGUE' in source]; settings: human
[12] = human; remark: listed apart in the source
[13] = human; remark: listed apart in the source
[14] = human; remark: listed apart in the source
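Wherever Hepatotoxicity (association with vascular disease) is given: count of indexed literature references reporting vascular liver injury in humans, e.g. peliosis hepatitis, hepatic veno-occlusive disease or Budd-Chiari syndrome.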
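Wherever Hepatotoxicity (benign tumour) is given: value is a count of indexed literature references citing a benign tumour confirmed by histopathology.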
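Wherever Hepatotoxicity (choleostasis) is given: human cholestatic liver injury, shown by histopathology or by peak ALT or AST elevation over alkaline phosphatase ratio below 2, value counts indexed literature reports.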
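Wherever Hepatotoxicity (chronic liver disease) is given: chronic liver injury confirmed by histopathology or persistently raised serum aminotransferase activity beyond 6 months, value given as the count of indexed literature references.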
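Wherever Hepatotoxicity (cirrhosis) is given: value is a count of indexed literature references reporting cirrhosis confirmed by histopathology.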
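Wherever Hepatotoxicity (cytolytic) is given: human cytolytic liver injury, shown by histopathology or by a ratio above 5 of peak ALT or AST elevation to alkaline phosphatase elevation, value counts indexed references.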
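Wherever Hepatotoxicity (granulomatous hepatitis) is given: value is a count of indexed literature references reporting granulomatous liver disease confirmed by histopathology.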
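Wherever Hepatotoxicity (malignant tumour) is given: malignant tumour confirmed by histopathology, value gives the count of indexed literature references reporting it.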
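Wherever Hepatotoxicity (severe hepatitis) is given: human clinical data: severe hepatitis, meaning potentially life-threatening liver failure or clinically observed cases, the value counts how many indexed literature references report it.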
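Wherever Hepatotoxicity (steatosis) is given: steatosis confirmed by histopathology, value is the count of indexed references.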

Row | Structure (SMILES) | Hepatotoxicity (acute) [1] | Hepatotoxicity (moderate) ([2]; Liver) | Hepatotoxicity (severe hepatitis) ([3]; Liver) | Hepatotoxicity (cytolytic) ([4]; Liver) | Hepatotoxicity (choleostasis) ([5]; Liver) | Hepatotoxicity (association with vascular disease) [6] | Hepatotoxicity (chronic liver disease) [7] | Hepatotoxicity (malignant tumour) [8] | Hepatotoxicity (granulomatous hepatitis) ([9]; Liver) | Hepatotoxicity (moderate) [10] | Hepatotoxicity (acute) ([11]; Liver) | Hepatotoxicity (benign tumour) [12] | Hepatotoxicity (steatosis) [13] | Hepatotoxicity (cirrhosis) [14] | Hepatotoxicity (moderate) [2] | Hepatotoxicity (severe hepatitis) [3] | Hepatotoxicity (cytolytic) [4] | Hepatotoxicity (choleostasis) [5] | Hepatotoxicity (granulomatous hepatitis) [9] | Hepatotoxicity (acute) [11]
1 | NC(CO)(CO)CO [TROMETHAMINE] | 2 | 0% | 2 | 2 | 0 | 0 | 0 | 0 | 0 | 0 | 0% | 0 | 0 | 0 | – | – | – | – | – | –
2 | CCCC[C@@H]1CC(=O)[C@]2(O)O[C@@H]3[C@@H](NC)[C@@H](O)[C@@H](NC)[C@H](O)[C@H]3O[C@@H]2O1 [TROSPECTOMYCIN] | 0 | – | – | – | – | 0 | 0 | 0 | – | 2 | – | 0 | 0 | 0 | 33.3% | 0 | 0 | 0 | 0 | 0%
3 | CC(C)C[C@H](NC(=O)[C@@H](O)[C@H](N)Cc1ccccc1)C(=O)O [UBENIMEX] | 0 | – | – | – | – | 0 | 0 | 0 | – | 1 | – | 0 | 0 | 0 | 2.4% | 0 | 0 | 0 | 0 | 0%
4 | CC(C)[C@H](N)C(=O)OCC(CO)OCn1cnc2c(=O)nc(N)[nH]c21 (some centres undefined) [VALGANCICLOVIR] | 0 | – | – | – | – | 0 | 0 | 0 | – | 1 | – | 0 | 0 | 0 | 3% | 0 | 0 | 0 | 0 | 0%
5 | COc1ccc(C(=O)N2CCN(c3ccc4c(c3)CCC(=O)N4)CC2)cc1OC [VESNARINONE] | 0 | – | – | – | – | 0 | 0 | 0 | – | 1 | – | 0 | 0 | 0 | 0.4% | 0 | 0 | 0 | 0 | 0%
6 | CCOc1ccccc1OCC1CNCCO1 (centres undefined) [VILOXAZINE] | 1 | 0% | 0 | 1 | 0 | 0 | 0 | 0 | 0 | 2 | 0% | 0 | 0 | 0 | – | – | – | – | – | –
7 | Cc1ncc(-c2csc(N=C(N)N)n2)[nH]1 [ZALTIDINE] | 1 | – | – | – | – | 0 | 0 | 0 | – | 1 | – | 0 | 0 | 0 | 94% | 0 | 1 | 0 | 0 | 8%
8 | O=C(O)Cn1c(=O)n(Cc2ccc(Br)cc2F)c(=O)c2ccc(Cl)cc21 [ZENARESTAT] | 0 | – | – | – | – | 0 | 0 | 0 | – | 1 | – | 0 | 0 | 0 | 9.5% | 0 | 0 | 0 | 0 | 0%
9 | O=C1Cc2cc(CCN3CCN(c4nsc5ccccc45)CC3)c(Cl)cc2N1 [ZIPRASIDONE] | 0 | – | – | – | – | 0 | 0 | 0 | – | 1 | – | 0 | 0 | 0 | 1.2% | 0 | 0 | 0 | 0 | 0%
10 | C[C@H](CSC(=O)c1ccccc1)C(=O)N1C[C@@H](Sc2ccccc2)C[C@H]1C(=O)O [ZOFENOPRIL] | 0 | – | – | – | – | 0 | 0 | 0 | – | 1 | – | 0 | 0 | 0 | 5.3% | 0 | 0 | 0 | 0 | 0%
11 | CN(C)CCc1c[nH]c2ccc(C[C@H]3COC(=O)N3)cc12 [ZOLMITRIPTAN] | 0 | – | – | – | – | 0 | 0 | 0 | – | 1 | – | 0 | 0 | 0 | 0% | 0 | 0 | 0 | 0 | 0%
12 | NS(=O)(=O)Cc1noc2ccccc12 [ZONISAMIDE] | 0 | – | – | – | – | 0 | 0 | 0 | – | 2 | – | 0 | 0 | 0 | 4.2% | 0 | 0 | 0 | 0 | 0%
13 | O=C(O)Cc1nn(Cc2nc3cc(C(F)(F)F)ccc3s2)c(=O)c2ccccc12 [ZOPOLRESTAT] | 0 | – | – | – | – | 0 | 0 | 0 | – | 1 | – | 0 | 0 | 0 | 11.6% | 0 | 0 | 0 | 0 | 0%
14 | COc1cccc2c1C(=O)c1c(O)c3c(c(O)c1C2=O)C[C@@](O)(/C(C)=N/NC(=O)c1ccccc1)C[C@@H]3O[C@H]1C[C@H](N)[C@H](O)[C@H](C)O1 [ZORUBICIN] | 1 | – | – | – | – | 0 | 0 | 0 | – | 1 | – | 0 | 0 | 0 | 51.7% | 1 | 0 | 1 | 0 | 17.2%
15 | CN(C)CCOC1=Cc2ccccc2Sc2ccc(Cl)cc21 [ZOTEPINE] | 0 | – | – | – | – | 0 | 0 | 0 | – | 8 | – | 0 | 0 | 0 | 34.8% | 0 | 0 | 0 | 0 | 0%
16 | OCCN1CCN(CC/C=C2/c3ccccc3Sc3ccc(Cl)cc32)CC1 [ZUCLOPENTHIXOL] | 0 | – | – | – | – | 0 | 0 | 0 | – | 1 | – | 0 | 0 | 0 | 19% | 0 | 0 | 0 | 0 | 0%
